The source of these data is ChEMBL document CHEMBL2074246, “Distinct groups of multidrug resistance modulating agents are distinguished by competition of P-glycoprotein-specific antibodies” (Biochem Biophys Res Commun, 2004).

Holding throughout (format): functional, cell-based
The target in data set [1] is T1, ATP-dependent translocase ABCB1 (Homo sapiens, UniProt P08183). The data set can be described thus: TP_TRANSPORTER: increase in Calcein-AM intracellular accumulation (Calcein-AM: 0.5 uM, Puromycin: 20 uM) in MDR1-expressing NIH-3T3 cells. The settings on record: mouse, nih3t3, 20 µM.
T1 sequence (P08183 whole entry): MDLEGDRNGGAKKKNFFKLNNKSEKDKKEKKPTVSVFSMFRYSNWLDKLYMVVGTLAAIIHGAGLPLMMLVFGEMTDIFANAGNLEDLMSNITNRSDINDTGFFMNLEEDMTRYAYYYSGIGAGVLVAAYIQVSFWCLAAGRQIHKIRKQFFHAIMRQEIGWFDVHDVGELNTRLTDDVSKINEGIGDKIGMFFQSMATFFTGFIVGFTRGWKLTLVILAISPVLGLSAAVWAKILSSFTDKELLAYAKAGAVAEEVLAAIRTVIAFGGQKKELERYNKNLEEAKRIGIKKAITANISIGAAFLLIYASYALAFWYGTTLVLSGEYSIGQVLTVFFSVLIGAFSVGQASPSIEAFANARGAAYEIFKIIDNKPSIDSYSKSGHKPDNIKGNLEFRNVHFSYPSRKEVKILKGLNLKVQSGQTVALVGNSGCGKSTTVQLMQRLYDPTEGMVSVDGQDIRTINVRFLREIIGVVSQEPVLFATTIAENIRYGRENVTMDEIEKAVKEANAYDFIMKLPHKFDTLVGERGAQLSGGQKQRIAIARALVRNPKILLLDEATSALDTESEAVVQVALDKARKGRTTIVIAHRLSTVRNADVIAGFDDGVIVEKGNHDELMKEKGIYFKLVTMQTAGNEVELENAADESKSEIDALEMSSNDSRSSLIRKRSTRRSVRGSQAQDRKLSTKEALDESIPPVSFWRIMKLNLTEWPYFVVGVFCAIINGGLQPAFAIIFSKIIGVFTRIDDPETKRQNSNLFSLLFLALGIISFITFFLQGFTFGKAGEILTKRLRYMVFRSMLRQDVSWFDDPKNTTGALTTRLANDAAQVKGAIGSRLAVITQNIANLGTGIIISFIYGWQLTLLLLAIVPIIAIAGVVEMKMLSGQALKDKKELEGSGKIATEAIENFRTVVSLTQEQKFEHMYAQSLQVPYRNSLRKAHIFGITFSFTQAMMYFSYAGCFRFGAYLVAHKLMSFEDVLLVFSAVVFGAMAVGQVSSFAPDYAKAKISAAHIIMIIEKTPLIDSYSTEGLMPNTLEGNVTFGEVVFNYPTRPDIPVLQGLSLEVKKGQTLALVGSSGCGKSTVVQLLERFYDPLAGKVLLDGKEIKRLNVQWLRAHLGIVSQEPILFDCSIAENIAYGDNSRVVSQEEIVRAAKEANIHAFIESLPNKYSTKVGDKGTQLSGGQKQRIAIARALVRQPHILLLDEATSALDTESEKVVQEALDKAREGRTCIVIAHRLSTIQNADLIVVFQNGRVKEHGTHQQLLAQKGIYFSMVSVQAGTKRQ
The target of data set [2] is T1, ATP-dependent translocase ABCB1. Nature of the data set: TP_TRANSPORTER: increase in Calcein-AM intracellular accumulation (Calcein-AM: 0.5 uM, Oligomycin: 5 uM) in MDR1-expressing NIH-3T3 cells. The settings on record: mouse, nih3t3, 5 µM.
Data set [3] has the same target. Nature of the data set: TP_TRANSPORTER: increase in Calcein-AM intracellular accumulation (Calcein-AM: 0.5 uM, Prazosin: 10 uM) in MDR1-expressing NIH-3T3 cells. The settings on record: mouse, nih3t3, 10 µM.
Data set [4] has the same target. The data set can be described thus: TP_TRANSPORTER: increase in Calcein-AM intracellular accumulation (Calcein-AM: 0.5 uM, Taxol: 20 uM) in MDR1-expressing NIH-3T3 cells. The settings on record: mouse, nih3t3, 20 µM.
The target is the same in data set [5]. Nature of the data set: TP_TRANSPORTER: increase in Calcein-AM intracellular accumulation (Calcein-AM: 0.5 uM, Vincristine: 200 uM) in MDR1-expressing NIH-3T3 cells. To be noted: mouse, nih3t3, 200 µM.

Molecules are shown by their SMILES.

On to `COc1ccc(C[C@H](N)C(=O)N[C@H]2[C@@H](O)[C@H](n3cnc4c(N(C)C)ncnc43)O[C@@H]2CO)cc1` [PUROMYCIN], for which the Activity result in data set [1] was “is not an inhibitor [-]”.

With `CC[C@H]1/C=C/C=C/C[C@@H](C)[C@H](O)[C@@](C)(O)C(=O)[C@@H](C)[C@H](O)[C@@H](C)C(=O)[C@@H](C)[C@H](O)[C@@H](C)/C=C/C(=O)O[C@@H]2[C@H](C)[C@H](CC1)O[C@]1(CC[C@H](C)[C@H](C[C@@H](C)O)O1)[C@H]2C` [OLIGOMYCIN], the Activity result in data set [2] was “is not an inhibitor [-]”.

For `COc1cc2nc(N3CCN(C(=O)c4ccco4)CC3)nc(N)c2cc1OC` [PRAZOSIN], in data set [3], the Activity entry was “is not an inhibitor [-]”.

On to `CC(=O)O[C@H]1C(=O)[C@@]2(C)[C@H]([C@H](OC(=O)c3ccccc3)[C@]3(O)C[C@H](OC(=O)[C@H](O)[C@@H](NC(=O)c4ccccc4)c4ccccc4)C(C)=C1C3(C)C)[C@]1(OC(C)=O)CO[C@@H]1C[C@@H]2O` [PACLITAXEL], for which, in data set [4], the Activity entry was “is not an inhibitor [-]”.

For the molecule `CC[C@]1(O)C[C@H]2CN(CCc3c([nH]c4ccccc34)[C@@](C(=O)OC)(c3cc4c(cc3OC)N(C=O)[C@H]3[C@@](O)(C(=O)OC)[C@H](OC(C)=O)[C@]5(CC)C=CCN6CC[C@]43[C@@H]65)C2)C1` [VINCRISTINE], the Activity entry in data set [5] is “is not an inhibitor [-]”.
